Reference: patent publication US20050008686A1, “Cochleate preparations of fragile nutrients” (priority 2003, published 2005)
Values after ≈ are worked out from the molar mass of the structure shown. Read-outs that look alike come from different tables or passages of the source.

Assay: solubility of beta-carotene in potential solvents
Type: physicochemical
Details: for solubility: organic solvent or mixture
From the text: The present invention is based, at least in part, on the discovery that one or more solvents such as tetrahydrofuran (THF), can be employed to form an improved cochleate with fragile nutrients such as beta-carotene at desirable concentrations. Suitable solvents and solvent mixtures that can be employed in connection with the present invention and can readily be identified by a person of skill in the art employing the teachings provided herein and knowledge in the art. For example, beta-carotene was added to a variety of potential solvents, and was found not soluble in either water or DMSO, and slightly soluble in methyl pyrrolidone (less than 1 mg/ml). Heptane also was considered, but heptane is not miscible with water and thus cannot readily be employed in the formation of cochleates. […] Similarly, solvents can be identified for other fragile nutrients and lipids in accordance with the present invention.

- solubility (solvent methyl pyrrolidone, slightly soluble, read-out: solubility in methyl pyrrolidone): < 1 mg/mL
- solubility (solvent tetrahydrofuran (THF), read-out: solubility in THF): 10 mg/mL (≈ 18.6 mM)
- solubility in DMSO (solvent DMSO): not soluble
- solubility in water (solvent water): not soluble
SMILES: CC1=C(/C=C/C(C)=C/C=C/C(C)=C/C=C/C=C(C)/C=C/C=C(C)/C=C/C2=C(C)CCCC2(C)C)C(C)(C)CCC1 [beta-carotene]
